According to US9332753B2, “Plant volatiles based on R-curcumene” (Keygene N.V., priority 2009, dated 2016):
Entries after “also recorded” stand apart in the source; their conditions may differ.

Columns and labels:
B. tabaci [1] = assay: Correlation of identified headspace volatiles with whitefly repellence ranking (stepwise linear regression, MANOVA); parameters: species or system Bemisia tabaci biotype Q; conditions: for Effect (semiochemical associated to B. tabaci repellence or attraction): first Table 5; for association (B. tabaci repellence or attraction): second Table 5; for Effect on insects: volatile related to whitefly repellence or attraction (Table 1)
Description: In a large experiment (see Example 2), the headspace of 16 wild tomato accessions and 5 cultivated tomato lines were sampled and analyzed (6 repeats). In total 51 compounds were identified to be present in the captured headspace. Furthermore, the level of repellency/attraction of each of the 21 tomato accessions was established in free choice bioassays with B. tabaci (biotype Q), using a ranking scale of 1-7 (1=highest repellency to 7=lowest repellency). Next, the identified volatile compounds were correlated to the repellency/attraction score of each tomato accession through a linear regression analysis.
The headspace of 16 wild tomatoes and 5 cultivated tomatoes (Table 4) was collected. Undisturbed 3-weeks old tomato plants were transferred to 40-L desiccators. The headspace was sampled during 24 h including a 16 h light period, by trapping of the volatile components as described above. […] Each accession was sampled 6 times.
In a statistical analysis the correlation between the identified components of the tomato headspace and the ranking of whitefly repellence measured in the bioassays was made. Using two approaches, a stepwise-linear regression analysis and a MANOVA, 8 volatiles were identified to be correlated to whitefly repellence, whereas 24 other volatile compounds were eliminated as non-relevant for repellency or attraction.

B. tabaci [2] = assay: Free choice bioassay with pure volatiles or mixtures added to one of four cv Moneymaker plants; assay type: in vivo, Bemisia tabaci biotype Q (Almeria population); conditions: for behavioural effect (significance of effect on B. tabaci behaviour in choice-assays): significance stars, key not given; for effect on whitefly behaviour: one of four Moneymaker plants treated
Description: For bioassays with headspace (total headspace or single compounds) four potted tomato plants (S. esculentum cv Moneymaker) were placed in a square setup at a distance of 50 cm. One hundred and fifty adult whiteflies were released and recorded as described above. To test the effect of selected headspace components on repellence, synthetic standards (FLUKA) were applied to either 10 filter-papers discs (Whatman, 25 mm diameter) or 10 rubber septa (Sigma Aldrich, Z167258). Prior to loading, the septa were placed in CH2Cl2 for 24 h and air-dried for 3 days (Heath et al., 1986). The paper discs or septa containing volatiles were attached to one of the four plants with metal wire. The position of the treated tomato was randomised. Five minutes after placing the volatiles on the plant, whiteflies were released. For each component at least 8 replications were carried out. Treatments were administered in a setup in which compounds were always added to the same plant in comparison to 3 plants with empty carriers. Prior to each assay with volatiles, the experiment was done with the 4 plants in an untreated setup, in the same position to allow comparison in the same background.
Host preference with and without manipulated headspace by B. tabaci was explored in free choice assays. In each setup four cultivated tomatoes (cv. Moneymaker) were tested as described earlier. For the bioassays with volatiles rubber septa (Sigma Aldrich Z167258) were extracted with CH2Cl2 for 24 hours and dried to the air for 3 days. The desired blend of volatiles was added to the rubber septa in 100 μl hexane. Bioassays with pure components, or mixtures of pure components were carried out as described above.
To positively confirm the correlation between the 7 candidate components and B. tabaci behaviour, host preference was assayed in bioassays with pure components. The desired (blend of) pure volatile chemicals were added, as described above, to the Moneymaker background on filter paper cards. […] The percentage of whiteflies visiting the treated plant decreased with 44% on average (p<0.001) (FIG. 2a) while the untreated plants harboured increased numbers of B. tabaci. […] To assess whether the sum of these three components would yield a greater effect than p-cymene alone, a mixture of p-cymene: gamma-terpinene: beta-myrcene in the same ratio as found in accession LA2560 (1:12:3) was tested. […] Finally, the sesquiterpenes were tested, tomato-derived 7-epi-zingiberene as well as its oxidation product R-curcumene, and zingiberene and its oxidation product S-crucume.

B. tabaci antennae = assay: Electroantennography (EAG); parameters: species or system Bemisia tabaci
Description: Electroantennography (EAG) was employed to confirm the responsiveness of the atennae to 10-3 dilution in paraffin oil (Uvasol, Merck) of the chemicals described. Small pieces of filter paper (2 cm2; Schleicher & Schuell, Dassel, Germany) were soaked with 100 μl of the standard dilution or paraffin oil only (control). The filter paper was inserted into a 10-ml glass syringe (Poulten & Graf GmbH, Wertheim, Germany). A reproducible stimulus was supplied by puffing 5 ml of air over the antenna (Schutz et al., 1999). The EAG response was recorded for each standard dilution. The response to paraffin oil was considered as a negative control and was subtracted from all the reported EAG measurements.

[3] = tested on: adult whiteflies B. tabaci; conditions: cited from earlier work
[4] = tested on: fourth instar larvae of Colorado potato beetle; conditions: cited from earlier work
[5] = Conversion on exposure to air; assay type: physicochemical
[6] = tested on: pests of cut flowers (e.g. B. tabaci); conditions: fumigant, 10-20 mg/l, after 2-4 hours of exposure; cited from earlier work
[7] = responses of B. tabaci antennae
[8] = n = 5, mean response and scatter, 10^-3 dilution in paraffin oil

CC1=CC2C(CC1)C2(C)C (stereo not shown) [2-carene]
correlation with repellence or attraction of tomato accessions (B. tabaci [1]): significantly correlated to the more attractive cultivated S. lycopersicum plants
Effect (semiochemical associated to B. tabaci repellence or attraction) (B. tabaci [1]): attraction
association (B. tabaci repellence or attraction) (B. tabaci [1]): attraction
Effect on insects (B. tabaci [1]): Attractant
behavioural effect (significance of effect on B. tabaci behaviour in choice-assays) (B. tabaci [2]): ns
antennal response (B. tabaci antennae; [7]): 3.9 mV

CCCCCCCCCCCC(C)=O [2-tridecanone]
toxic effect [3]: toxic effect

CCCCCCCCCC(C)=O [2-undecanone]
toxic effect [4]: toxic effect

CC(C)=CCC[C@@H](C)[C@@H]1C=CC(C)=CC1 [7-epi-zingiberene]
correlation with repellence or attraction of tomato accessions (B. tabaci [1]): appear to be responsible for rendering the S. habrochaites (former typicum) more unattractive
Effect (semiochemical associated to B. tabaci repellence or attraction) (B. tabaci [1]): repellence
association (B. tabaci repellence or attraction) (B. tabaci [1]): repellence
Effect on insects (B. tabaci [1]): Repellent
effect on whitefly behaviour (B. tabaci [2]): clear repellent effect; also recorded: very effective in reducing the number of whitefly visitations
antennal response (B. tabaci antennae; [8]): 23 (0-53) μV
antennal response (B. tabaci antennae; [7]): 2.3 mV
stability when exposed to air [5]: rapidly converted to R- and S-curcumene respectively

CC1=CCC(C(C)C)C=C1 (stereo not drawn) [Alpha-phellandrene]
correlation with repellence or attraction of tomato accessions (B. tabaci [1]): repellent compounds linked to S. pennelli
association (B. tabaci repellence or attraction) (B. tabaci [1]): repellence
Effect on insects (B. tabaci [1]): Repellent
antennal response (B. tabaci antennae; [7]): 2.2 mV

CC1=CC=C(C(C)C)CC1 [Alpha-terpinene]
correlation with repellence or attraction of tomato accessions (B. tabaci [1]): repellent compounds linked to S. pennelli
association (B. tabaci repellence or attraction) (B. tabaci [1]): repellence
Effect on insects (B. tabaci [1]): Repellent
antennal response (B. tabaci antennae; [7]): 4.1 mV

CC12CCC(CC1)C(C)(C)O2 [Cineole]
mortality [6]: caused mortality

CC(C)=CCC[C@@H](C)c1ccc(C)cc1 [R-curcumene]
correlation with repellence or attraction of tomato accessions (B. tabaci [1]): appear to be responsible for rendering the S. habrochaites (former typicum) more unattractive
Effect (semiochemical associated to B. tabaci repellence or attraction) (B. tabaci [1]): repellence
association (B. tabaci repellence or attraction) (B. tabaci [1]): repellence
Effect on insects (B. tabaci [1]): Repellent
effect on whitefly behaviour (B. tabaci [2]): clear repellent effect; also recorded: repelled
antennal recognition / sensitivity (B. tabaci antennae; electroantennography): highest sensitivity
antennal response (B. tabaci antennae; [8]): 50 (8-148) μV
antennal response (B. tabaci antennae; [7]): 5.0 mV

CC(C)=CCC[C@H](C)c1ccc(C)cc1 [S-curcumene]
Effect (semiochemical associated to B. tabaci repellence or attraction) (B. tabaci [1]): repellence
association (B. tabaci repellence or attraction) (B. tabaci [1]): repellence
Effect on insects (B. tabaci [1]): Repellent
effect on whitefly behaviour (B. tabaci [2]): did not appear to repel
antennal response (B. tabaci antennae; [8]): 27 (3-60) μV
antennal response (B. tabaci antennae; [7]): 2.7 mV

C=CC(=C)CCC=C(C)C [beta-myrcene]
correlation with repellence or attraction of tomato accessions (B. tabaci [1]): repellent compounds linked to S. pennelli
Effect (semiochemical associated to B. tabaci repellence or attraction) (B. tabaci [1]): repellence
association (B. tabaci repellence or attraction) (B. tabaci [1]): repellence
Effect on insects (B. tabaci [1]): Repellent
effect on whitefly behaviour (B. tabaci [2]): did not influence whitefly behaviour
behavioural effect (significance of effect on B. tabaci behaviour in choice-assays) (B. tabaci [2]): ns
antennal response (B. tabaci antennae; [7]): ns

C=C1C=CC(C(C)C)CC1 (stereo not drawn) [beta-phellandrene]
correlation with repellence or attraction of tomato accessions (B. tabaci [1]): significantly correlated to the more attractive cultivated S. lycopersicum plants
Effect (semiochemical associated to B. tabaci repellence or attraction) (B. tabaci [1]): attraction
association (B. tabaci repellence or attraction) (B. tabaci [1]): attraction
Effect on insects (B. tabaci [1]): Attractant
effect on whitefly behaviour (B. tabaci [2]): decreased tomato attractiveness significantly
behavioural effect (significance of effect on B. tabaci behaviour in choice-assays) (B. tabaci [2]): ns
antennal response (B. tabaci antennae; [7]): 2.5 mV

CC1=CCC(C(C)C)=CC1 [gamma-terpinene]
correlation with repellence or attraction of tomato accessions (B. tabaci [1]): repellent compounds linked to S. pennelli
Effect (semiochemical associated to B. tabaci repellence or attraction) (B. tabaci [1]): repellence
association (B. tabaci repellence or attraction) (B. tabaci [1]): repellence
Effect on insects (B. tabaci [1]): Repellent
behavioural effect (significance of effect on B. tabaci behaviour in choice-assays) (B. tabaci [2]): ns
antennal response (B. tabaci antennae; [7]): 1.9 mV

C=C(C)[C@H]1CC=C(C)CC1 [limonene]
correlation with repellence or attraction of tomato accessions (B. tabaci [1]): significantly correlated to the more attractive cultivated S. lycopersicum plants
Effect (semiochemical associated to B. tabaci repellence or attraction) (B. tabaci [1]): attraction
association (B. tabaci repellence or attraction) (B. tabaci [1]): attraction
Effect on insects (B. tabaci [1]): Attractant
behavioural effect (significance of effect on B. tabaci behaviour in choice-assays) (B. tabaci [2]): ns
antennal response (B. tabaci antennae; [7]): 3.5 mV

Cc1ccc(C(C)C)cc1 [para-cymene]
correlation with repellence or attraction of tomato accessions (B. tabaci [1]): repellent compounds linked to S. pennelli
Effect (semiochemical associated to B. tabaci repellence or attraction) (B. tabaci [1]): repellence
association (B. tabaci repellence or attraction) (B. tabaci [1]): repellence
Effect on insects (B. tabaci [1]): Repellent
decrease of percentage of whiteflies visiting the treated plant (B. tabaci [2]; on average, vs same plant in untreated setup, p-cymene 10 μg, mixture ratio 1:12:3): 44%
antennal response (B. tabaci antennae; [7]): 2.4 mV

C=CCc1ccc2c(c1)OCO2 [safrole]
mortality [6]: caused mortality

CC(C)=CCC[C@H](C)[C@@H]1C=CC(C)=CC1 [zingiberene]
Effect (semiochemical associated to B. tabaci repellence or attraction) (B. tabaci [1]): repellence
association (B. tabaci repellence or attraction) (B. tabaci [1]): repellence
Effect on insects (B. tabaci [1]): Repellent
effect on whitefly behaviour (B. tabaci [2]): did not appear to be repelled
antennal response (B. tabaci antennae; [8]): 21 (5-30) μV
antennal response (B. tabaci antennae; [7]): 2.1 mV
stability when exposed to air [5]: rapidly converted to R- and S-curcumene respectively
